The CheMixHub ionic liquid set
Where “and” joins values, the source holds several entries; their conditions need not be identical. Equal entries are not always repeated.

Experiment: xn = mol fraction of the nth substance listed

CCCCCCCC[N+](C)(CCCCCCCC)CCCCCCCC.[Cl-] + COC(=O)OC
101 kPa
Settings	electrical conductivity	viscosity [mPa·s]
298.15 K, x1 = 0.002	0.00012 S/m	–
298.15 K, x1 = 0.006	0.000267 S/m	–
298.15 K, x1 = 0.011	0.000601 S/m	–
298.15 K, x1 = 0.015	0.000944 S/m	–
298.15 K, x2 = 0	0.0026 S/m	2391
298.15 K, x2 = 0.67	0.015 S/m	58.07
298.15 K, x2 = 0.88	0.026 S/m	5.19
298.15 K, x2 = 0.98	0.00126 S/m	–
303.15 K, x1 = 0.002	0.000143 S/m	–
303.15 K, x1 = 0.006	0.000346 S/m	–
303.15 K, x1 = 0.011	0.00075 S/m	–
303.15 K, x1 = 0.015	0.00122 S/m	–
303.15 K, x2 = 0.55	0.0126 S/m	123.5
303.15 K, x2 = 0.98	0.00161 S/m	–
308.15 K, x1 = 0.002	0.000199 S/m	–
308.15 K, x1 = 0.006	0.00043 S/m	–
308.15 K, x2 = 0.76	0.0317 S/m	15.98
308.15 K, x2 = 0.95	0.0116 S/m	1.21
308.15 K, x2 = 0.98	0.0017 S/m and 0.00175 S/m	0.71
313.15 K, x1 = 0.006	0.0005 S/m	–
313.15 K, x1 = 0.011	0.00105 S/m	–
313.15 K, x2 = 0.55	0.0201 S/m	78.5
313.15 K, x2 = 0.92	0.0292 S/m	1.9
313.15 K, x2 = 0.98	0.00188 S/m and 0.0019 S/m	0.67
318.15 K, x1 = 0.002	0.000399 S/m	–
318.15 K, x1 = 0.006	0.00062 S/m	–
318.15 K, x1 = 0.011	0.00115 S/m	–
318.15 K, x2 = 0.98	0.00197 S/m	–

CC[N+](C)(CC)CCOC.O=S(=O)([N-]S(=O)(=O)C(F)(F)F)C(F)(F)F + O=C1CCCO1
101 kPa
Settings	electrical conductivity [S/m]	viscosity [mPa·s]
288.15 K, x1 = 0.1004	1.07	5.77
288.15 K, x1 = 0.2006	1.05	8.69
288.15 K, x1 = 0.4998	0.504	39.28
288.15 K, x1 = 0.6002	0.42	63.7
293.15 K, x1 = 0.1004	1.18	4.642
293.15 K, x1 = 0.3003	0.925	12.34
293.15 K, x1 = 0.4998	0.589	30.79
293.15 K, x1 = 1	0.184	162.2
298.15 K, x1 = 0.1004	1.305	3.697
298.15 K, x1 = 0.4007	0.841	15.12
303.15 K, x1 = 0.6999	0.592	39.92
303.15 K, x1 = 1	0.301	89.7
308.15 K, x1 = 0.3003	1.28	7.61
308.15 K, x1 = 0.4007	1.08	10.57
308.15 K, x1 = 0.4998	0.904	15.55
308.15 K, x1 = 0.9003	0.463	51.6
313.15 K, x1 = 0.1004	1.644	1.923
313.15 K, x1 = 0.2006	1.76	3.958
313.15 K, x1 = 0.8001	0.676	30.48
318.15 K, x1 = 0.6002	1.021	14.49
323.15 K, x1 = 0.2006	2.07	2.954
323.15 K, x1 = 0.4007	1.5	6.43
323.15 K, x1 = 0.4998	1.29	8.64
323.15 K, x1 = 0.6002	1.145	11.6
328.15 K, x1 = 0.6002	1.28	9.45
328.15 K, x1 = 1	0.706	26.35
333.15 K, x1 = 0.4007	1.812	4.73
333.15 K, x1 = 1	0.816	21.31
343.15 K, x1 = 0.3003	2.44	2.72
343.15 K, x1 = 0.4998	1.926	4.472
348.15 K, x1 = 0.4007	2.346	3.095
348.15 K, x1 = 0.6999	1.68	5.09
348.15 K, x1 = 0.9003	1.328	9.11
353.15 K, x1 = 0.2006	3.09	1.361
353.15 K, x1 = 0.3003	2.85	2.11
353.15 K, x1 = 0.6002	2.05	3.425
353.15 K, x1 = 0.9003	1.46	7.16

CCOP(=O)([O-])OCC.CC[n+]1ccn(C)c1 + CS(C)=O
298.1 K, 100 kPa
Settings	electrical conductivity
x1 = 0.025	0.31 S/m and 0.4 S/m
x1 = 0.407	0.4 S/m
x1 = 0.718	0.16 S/m
x1 = 1	0.09 S/m

CCCCCCCCn1cc[n+](C)c1.[Br-] + OC1OC[C@@H](O)[C@H](O)[C@H]1O + O
298.15 K, 101 kPa
Settings	viscosity [mPa·s]
x2 = 0, x1 = 0.001831	0.965
x2 = 0, x1 = 0.003598	1.025
x2 = 0, x1 = 0.005443	1.103
x2 = 0, x1 = 0.007132	1.172

CC[N+](C)(CC)CCOC.O=S(=O)([N-]S(=O)(=O)C(F)(F)F)C(F)(F)F + CCCCn1cc[n+](C)c1C.O=S(=O)([N-]S(=O)(=O)C(F)(F)F)C(F)(F)F
100 kPa
Settings	electrical conductivity [S/m]
293.15 K, x1 = 0.2	0.192
293.15 K, x1 = 0.5	0.202
298.15 K, x1 = 0.2	0.256
313.15 K, x1 = 0.5	0.517
313.15 K, x1 = 0.7	0.527
318.15 K, x1 = 0.2	0.594
323.15 K, x1 = 0.7	0.755
328.15 K, x1 = 0.1	0.82
328.15 K, x1 = 0.3	0.845
328.15 K, x1 = 0.4	0.847
333.15 K, x1 = 0.6	0.999
343.15 K, x1 = 0.1	1.24
343.15 K, x1 = 0.2	1.24

CCCC[n+]1ccn(C)c1.[Cl-] + OC[C@H]1O[C@H](O[C@H]2[C@H](O)[C@@H](O)C(O)O[C@@H]2CO)[C@H](O)[C@@H](O)[C@@H]1O + O
298.15 K, 101.3 kPa
Settings	electrical conductivity [S/m]
x2 = 0, x1 = 8.71e-06	0.00583
x2 = 0, x1 = 1.208e-05	0.00794
x2 = 0, x1 = 1.485e-05	0.00965
x2 = 0, x1 = 1.707e-05	0.01101
x2 = 0, x1 = 1.937e-05	0.01241
x2 = 0, x1 = 2.164e-05	0.0138
x2 = 0, x1 = 2.397e-05	0.0152
x2 = 0, x1 = 2.6e-05	0.0164
x2 = 0, x1 = 2.824e-05	0.0177
x2 = 0, x1 = 3.029e-05	0.019

CCCCCCCCn1cc[n+](C)c1.[Br-] + NC(N)=O + O
298.15 K, 100 kPa
Settings	viscosity [mPa·s]
x2 = 0, x3 = 0.9008	31.3
x2 = 0, x3 = 0.9487	7.96
x2 = 0.008063, x3 = 0.8927	31.3
x2 = 0.008505, x3 = 0.9402	7.68
x2 = 0.01609, x3 = 0.8847	31.2
x2 = 0.02499, x3 = 0.9237	7.49
x2 = 0.03154, x3 = 0.8693	30.7
x2 = 0.03316, x3 = 0.9155	7.32
x2 = 0.03874, x3 = 0.8621	30.7
x2 = 0.04082, x3 = 0.9079	7.14

C[N+]1(CCOCCOCCOCC[N+]2(C)CCCC2)CCCC1.O=S(=O)([N-]S(=O)(=O)C(F)(F)F)C(F)(F)F.O=S(=O)([N-]S(=O)(=O)C(F)(F)F)C(F)(F)F + CC[n+]1ccn(C)c1.N#C[N-]C#N + O=S(=O)([N-]S(=O)(=O)C(F)(F)F)C(F)(F)F.[Li+]
100 kPa, x1 = 0.1489, x2 = 0.7484
Settings	electrical conductivity [S/m]
298 K	0.698
303 K	0.827
313 K	1.1
323 K	1.43
333 K	1.81
343 K	2.21
